ChEMBL document CHEMBL3244168, “Synthesis and antitumor activity of preactivated isophosphamide analogues bearing modified alkylating functionalities” (J Med Chem, 1978)
In brackets after ≈: the same amount, converted by molar mass. Activity calls are given as the source filed them. The rule behind the calls is not given here.

Assays:
[1] = test system: L1210; assay: Cytotoxicity against mouse L1210 cells assessed as growth inhibition after 72 hrs; assay type: functional; details: L1210, 72 h, read-out: ED50 (the source's name)
[2] = test system: L1210; assay: Antileukemic activity against mouse L1210 cells allografted in ip dosed BDF1 mouse administered 24 hrs; assay type: functional
[3] = test system: L1210; assay: Ratio of ILSmax to ILS30 for antileukemic activity against mouse L1210 cells allografted in ip dosed BDF1 mouse; assay type: functional
[4] = test system: L1210; assay: Antileukemic activity against mouse L1210 cells allografted in ip dosed BDF1 mouse assessed as maximum tolerated dose for survival over 30 days administered 24 hrs; assay type: functional
[5] = test system: Mus musculus; assay: Acute toxicity in iv dosed BDF1 mouse; assay type: organism-based; details: in vivo
[6] = test system: Mus musculus; assay: Acute toxicity in ip dosed BDF1 mouse; assay type: organism-based; details: in vivo
[7] = test system: Mus musculus; assay: Acute toxicity in po dosed BDF1 mouse; assay type: organism-based; details: in vivo
[8] = test system: Rattus norvegicus; assay: Acute toxicity in iv dosed Wistar rat; assay type: organism-based; details: in vivo
[9] = test system: Rattus norvegicus; assay: Acute toxicity in ip dosed Wistar rat; assay type: organism-based; details: in vivo
[10] = test system: Rattus norvegicus; assay: Acute toxicity in po dosed Wistar rat; assay type: organism-based; details: in vivo
[11] = test system: L1210; assay: Antileukemic activity against mouse L1210 cells allografted in BDF1 mouse assessed as mean survival time at 2 mg/kg, ip administered 24 hrs (Rvb 4.6 +/- 0.16 days); assay type: functional; details: route intraperitoneal
[12] = test system: L1210; assay: Antileukemic activity against mouse L1210 cells allografted in BDF1 mouse assessed as mean survival time at 10 mg/kg, ip administered 24 hrs (Rvb 4.6 +/- 0.16 days); assay type: functional; details: route intraperitoneal
[13] = test system: L1210; assay: Antileukemic activity against mouse L1210 cells allografted in BDF1 mouse assessed as mean survival time at 50 mg/kg, ip administered 24 hrs (Rvb 4.6 +/- 0.16 days); assay type: functional; details: route intraperitoneal
[14] = test system: L1210; assay: Antileukemic activity against mouse L1210 cells allografted in BDF1 mouse assessed as mean survival time at 100 mg/kg, ip administered 24 hrs (Rvb 4.6 +/- 0.16 days); assay type: functional; details: route intraperitoneal
[15] = test system: L1210; assay: Antileukemic activity against mouse L1210 cells allografted in BDF1 mouse assessed as increase in life span at 2 mg/kg, ip administered 24 hrs relative to control; assay type: functional; details: route intraperitoneal
[16] = test system: L1210; assay: Antileukemic activity against mouse L1210 cells allografted in BDF1 mouse assessed as increase in life span at 10 mg/kg, ip administered 24 hrs relative to control; assay type: functional; details: route intraperitoneal
[17] = test system: L1210; assay: Antileukemic activity against mouse L1210 cells allografted in BDF1 mouse assessed as increase in life span at 50 mg/kg, ip administered 24 hrs relative to control; assay type: functional; details: route intraperitoneal
[18] = test system: L1210; assay: Antileukemic activity against mouse L1210 cells allografted in BDF1 mouse assessed as increase in life span at 100 mg/kg, ip administered 24 hrs relative to control; assay type: functional; details: route intraperitoneal
[19] = test system: L1210; assay: Antileukemic activity against mouse L1210 cells allografted in iv dosed BDF1 mouse assessed as survival over 60 days administered 24 hrs; assay type: functional; details: read-out: MED
[20] = test system: L1210; assay: Antileukemic activity against mouse L1210 cells allografted in ip dosed BDF1 mouse assessed as survival over 60 days administered 24 hrs; assay type: functional; details: read-out: MED
[21] = test system: L1210; assay: Antileukemic activity against mouse L1210 cells allografted in po dosed BDF1 mouse assessed as survival over 60 days administered 24 hrs; assay type: functional; details: read-out: MED
[22] = test system: L1210; assay: Antileukemic activity against mouse L1210 cells allografted in iv dosed BDF1 mouse assessed as maximum tolerated dose for survival over 60 days administered 24 hrs; assay type: functional
[23] = test system: L1210; assay: Antileukemic activity against mouse L1210 cells allografted in ip dosed BDF1 mouse assessed as maximum tolerated dose for survival over 60 days administered 24 hrs; assay type: functional
[24] = test system: L1210; assay: Antileukemic activity against mouse L1210 cells allografted in po dosed BDF1 mouse assessed as maximum tolerated dose for survival over 60 days administered 24 hrs; assay type: functional
[25] = test system: L1210; assay: Ratio of Cmax to Cmin for antileukemic activity against mouse L1210 cells allografted in iv dosed BDF1 mouse assessed as survival over 60 days; assay type: functional
[26] = test system: L1210; assay: Ratio of Cmax to Cmin for antileukemic activity against mouse L1210 cells allografted in ip dosed BDF1 mouse assessed as survival over 60 days; assay type: functional
[27] = test system: L1210; assay: Ratio of Cmax to Cmin for antileukemic activity against mouse L1210 cells allografted in po dosed BDF1 mouse assessed as survival over 60 days; assay type: functional
[28] = test system: L1210; assay: Antileukemic activity against mouse L1210 cells allografted in BDF1 mouse assessed as increase in survivor over 30 days at 100 mg/kg, ip administered 24 hrs; assay type: functional, organism-based; design: dose 100 mg/kg
[29] = test system: L1210; assay: Antileukemic activity against mouse L1210 cells allografted in BDF1 mouse assessed as mean survival time at 20 mg/kg, ip administered 24 hrs (Rvb 4.6 +/- 0.16 days); assay type: functional; details: route intraperitoneal
[30] = test system: L1210; assay: Antileukemic activity against mouse L1210 cells allografted in BDF1 mouse assessed as mean survival time at 200 mg/kg, ip administered 24 hrs (Rvb 4.6 +/- 0.16 days); assay type: functional; details: route intraperitoneal
[31] = test system: L1210; assay: Antileukemic activity against mouse L1210 cells allografted in BDF1 mouse assessed as increase in life span at 20 mg/kg, ip administered 24 hrs relative to control; assay type: functional; details: route intraperitoneal
[32] = test system: L1210; assay: Antileukemic activity against mouse L1210 cells allografted in BDF1 mouse assessed as increase in life span at 200 mg/kg, ip administered 24 hrs relative to control; assay type: functional; details: route intraperitoneal

O=P1(NCCBr)OCCC(OO)N1CCBr (centres undefined) was tested, and the EC50 [1] was 2 µg/mL (≈ 5.24 µM), the ILS30 [2] was 6 mg/kg and the Ratio [3] was 12. For the same compound, the ILSmax [4] was 70 mg/kg.

CN(CCCl)P1(=O)OCCC(OO)N1CCOS(C)(=O)=O (centres undefined) was tested, and the EC50 [1] was 0.8 µg/mL (≈ 2.18 µM), the ILS30 [2] was 2 mg/kg and the Ratio [3] was 40. It also gave an ILSmax [4] of 80 mg/kg, an LD10 [5] of 120 mg/kg and an LD10 [6] of 134 mg/kg. The LD10 [7] was 284 mg/kg, the LD10 [8] was 66 mg/kg and the LD10 [9] was 41 mg/kg. For the same compound, the LD10 [10] was 238 mg/kg, the MST [11] was 6.6 days and the MST [12] was 11.4 days. It also gave an MST [13] of over 26.1 days, an MST [14] of over 15.8 days and an ILS at 2 mg/kg [15] of 44%. For the same compound, the ILS at 10 mg/kg [16] was 147%, the ILS at 50 mg/kg [17] was over 468% and the ILS at 100 mg/kg [18] was over 242%. The minimal effective dose [19] was 15 mg/kg, the minimal effective dose [20] was 10 mg/kg and the minimal effective dose [21] was 50 mg/kg. For the same compound, the MTD [22] was 100 mg/kg, the MTD [23] was 100 mg/kg and the MTD [24] was 200 mg/kg. It also gave a Ratio [25] of 6.6, a Ratio [26] of 10 and a Ratio [27] of 4. For the same compound, the Activity [28] was “Active”.

CN(CCCl)P1(=O)OCCC(OO)N1CCBr (centres undefined) was tested, and the EC50 [1] was 0.5 µg/mL (≈ 1.42 µM), the ILS30 [2] was 7 mg/kg and the Ratio [3] was 5. It also gave an ILSmax [4] of 35 mg/kg.

Compound CCS(=O)(=O)OCCN(C)P1(=O)OCCC(OO)N1CCCl (centres undefined) has an EC50 [1] of 0.8 µg/mL (≈ 2.1 µM), an ILS30 [2] of 10 mg/kg and a Ratio [3] of 8. The ILSmax [4] was 80 mg/kg.

CS(=O)(=O)OCCNP1(=O)OCCC(OO)N1CCOS(C)(=O)=O (centres undefined) was tested, and the EC50 [1] was 3.9 µg/mL (≈ 9.46 µM), the ILS30 [2] was 25 mg/kg and the Ratio [3] was 2. For the same compound, the ILSmax [4] was 50 mg/kg.

Work on CN(CCOS(C)(=O)=O)P1(=O)OCCC(OO)N1CCCl (centres undefined) yielded an EC50 [1] of 0.5 µg/mL (≈ 1.36 µM), an ILS30 [2] of 3 mg/kg and a Ratio [3] of 20. It also gave an ILSmax [4] of 60 mg/kg.

Compound CS(=O)(=O)OCCN1C(OO)CCOP1(=O)NCCCl (centres undefined) has an EC50 [1] of 0.8 µg/mL (≈ 2.27 µM), an ILS30 [2] of 2 mg/kg and a Ratio [3] of 38. The ILSmax [4] was 75 mg/kg.

In the case of O=P1(NCCCl)OCCC(OO)N1CCCl (centres undefined), the EC50 [1] is reported as 1.8 µg/mL (≈ 6.14 µM), the ILS30 [2] is reported as 15 mg/kg and the Ratio [3] is reported as 7. The ILSmax [4] was 100 mg/kg, the LD10 [5] was 220 mg/kg and the LD10 [6] was 220 mg/kg. For the same compound, the LD10 [7] was 1000 mg/kg, the LD10 [8] was 250 mg/kg and the LD10 [9] was 250 mg/kg. For the same compound, the LD10 [10] was 800 mg/kg, the MST [13] was 12.5 days and the MST [14] was over 23.8 days. The MST [29] was 8.9 days, the MST [30] was over 26.5 days and the ILS at 50 mg/kg [17] was 172%. The ILS at 100 mg/kg [18] was over 416%, the ILS at 20 mg/kg [31] was 93% and the ILS at 200 mg/kg [32] was over 476%. The minimal effective dose [19] was 90 mg/kg, the minimal effective dose [20] was 30 mg/kg and the minimal effective dose [21] was 400 mg/kg. It also gave an MTD [22] of 160 mg/kg, an MTD [23] of 70 mg/kg and an MTD [24] of 400 mg/kg. For the same compound, the Ratio [25] was 1.8, the Ratio [26] was 2.3 and the Ratio [27] was 1.
